The values that follow come from ChEMBL document CHEMBL1944615, “Synthesis and biological evaluation of deoxy-hematoxylin derivatives as a novel class of anti-HIV-1 agents” (Bioorg Med Chem Lett, 2012).

pIC50: −log10 of the molar value.

Data set [1] is described as follows: Cytotoxicity against human MOLT4 cells expressing CD4+ after 2 days by MTT assay. The data set is classed as cell-based, MOLT-4.
The test system of data set [2] is Human immunodeficiency virus 1. Kind of data set: Antiviral activity against HIV1 NL432 infected in human ConA and IL2-stimulated PBMC assessed as inhibition of viral replication by reverse transcriptase assay. As to conditions: for pIC50: Human immunodeficiency virus 1, NL432, read-out: IC50; call rule not given here. The data set is classed as functional, organism-based.
The test system of data set [3] is Human immunodeficiency virus 1. Kind of data set: Antiviral activity against HIV1 NL432 infected in human TZM-Bl cells assessed as inhibition of viral replication after 2 days by luciferase reporter gene analysis. In kind it is functional, organism-based. As to conditions: for pIC50: Human immunodeficiency virus 1, NL432, TZM-bl, 48 h, read-out: IC50; for IC50: tzm-bl.

The subject of data set [4] is Human immunodeficiency virus 1. Kind of data set: Antiviral activity against HIV1 NF-462 expressing wild-type Vpr infected in human 293T cells containing 4 ng of viral p24 antigen after 8 days by ELISA. In kind it is functional, organism-based. As to conditions: for pIC50: Human immunodeficiency virus 1, NF-462, HEK-293T, 192 h, read-out: IC50.
A short description of data set [5]: Inhibition of HIV1 VPR/human importin-alpha interaction in human HeLa cells assessed as inhibition of nuclear import of preintegral complex after 15 mins by confocal laser scanning microscopic analysis. The data set is classed as cell-based.
Data set [6] relates to Human immunodeficiency virus 1. Kind of data set: Antiviral activity against HIV1 NF-462 expressing wild-type Vpr infected in human 293T cells containing 1 ng of viral p24 antigen after 8 days by ELISA relative to hematoxylin. In kind it is functional.
Data set [7] has as its system Human immunodeficiency virus 1. Kind of data set: Antiviral activity against HIV1 NF-462 expressing wild-type Vpr infected in human 293T cells containing 4 ng of viral p24 antigen after 8 days by ELISA relative to hematoxylin. The data set is classed as functional.

On to `Oc1cc2c(cc1O)[C@@H]1c3ccc(O)c(O)c3OC[C@]1(O)C2` [HEMATOXYLIN], for which the CC50 at 48 h in data set [1] is 40000 nM. For the same compound, the IC50 entry in data set [2] is listed as “ND(toxic)”. The pIC50 in data set [3] is 4.00; in data set [4], > 6.00; in data set [5] it was 5.89.
On to `O[C@]12COc3ccccc3[C@H]1c1ccccc1C2`, for which the CC50 at 48 h in data set [1] was > 100000 nM. Further, the IC50 result in data set [3] was “Not Active”. Further, in data set [5], the pIC50 is 5.57.
Turning to `Oc1ccc2c(c1)C[C@@]1(O)COc3ccccc3[C@@H]21`, the CC50 at 48 h in data set [1] was determined as 82000 nM. Moreover, the pIC50 in data set [2] is 4.60; in data set [3], 4.17; in data set [4], 6.05; in data set [5], 6.22.
Take `Oc1cc2c(cc1O)[C@@H]1c3ccccc3OC[C@]1(O)C2`: in data set [1], the CC50 at 48 h is 1900 nM. In data set [3], the IC50 entry is on record as “ND(toxic)”. For the same compound, in data set [5], the pIC50 was 5.72.
On to `CC1(C)Oc2cc3c(cc2O1)[C@@H]1c2cccc(OCc4ccccc4)c2OC[C@]1(O)C3`, for which, in data set [1], the CC50 at 48 h was > 80000 nM. In addition, the IC50 entry in data set [3] and in data set [4] (293t) was “Not Active” each time. In data set [5], the pIC50 was 6.10.
`CC1(C)Oc2cc3c(cc2O1)[C@@H]1c2cccc(O)c2OC[C@]1(O)C3`: the CC50 at 48 h in data set [1] is > 80000 nM. Also, the pIC50 in data set [2] is 4.52; in data set [3] it was 4.61; in data set [4], 7.00; in data set [5], 6.30. Besides, the “Ratio IC50” value in data set [6] turned out to be 2; in data set [7], 10.
Consider `Oc1cc2c(cc1O)[C@@H]1c3cccc(O)c3OC[C@]1(O)C2`, for which, in data set [1], the CC50 at 48 h amounted to 32000 nM. For the same compound, the IC50 entry in data set [2] and in data set [3] was “ND(toxic)” throughout. Moreover, the pIC50 in data set [4] is 6.40; in data set [5], 6.05.
